The values below come from the NIST ThermoML archive (doi:10.1016/j.fluid.2014.04.020).

Data set [1] in a line: Molar enthalpy of transition or fusion. As to conditions: Crystal; DSC.
For data set [2] the following is noted: Crystal; DTA.

± gives the expanded uncertainty stated by the source.

`CCCCCCCCCC(=O)O` [decanoic acid]: the “Molar enthalpy of transition or fusion” value in data set [1] amounted to 27.2 ± 1.2 kJ/mol. Further, the Normal melting temperature in data set [2] was 31.10 ± 0.53 °C.
Consider `CCCCCCCCCCCC(=O)O` [dodecanoic acid], for which the “Molar enthalpy of transition or fusion” value in data set [1] was found to be 35.5 ± 1.6 kJ/mol. In addition, the Normal melting temperature in data set [2] stood at 43.00 ± 0.53 °C.
Turning to `CCCCCCCCCCCCCCCCCC` [octadecane], the “Molar enthalpy of transition or fusion” value in data set [1] was 61.6 ± 2.7 kJ/mol. The Normal melting temperature in data set [2] amounted to 27.80 ± 0.53 °C.
